In ChEMBL document CHEMBL1909046, “DrugMatrix in vitro pharmacology data”:

Experiments:
[1] = target: Carbonic anhydrase 2 (Homo sapiens, UniProt P00918); assay: DRUGMATRIX: Carbonic Anhydrase II enzyme inhibition (substrate: 4-Nitrophenyl acetate (4-NPA)); type: tissue-based; conditions: erythrocyte; Not Active = under 50% inhibition at 10 µM
[2] = target: Melanocortin receptor 3 (Homo sapiens, UniProt P41968); type: cell membranes, HEK293, Membrane; conditions: hek293; also: in other assays of this panel Not Active means under 50% inhibition at 10 µM
Melanocortin receptor 3, sequence (P41968 whole entry): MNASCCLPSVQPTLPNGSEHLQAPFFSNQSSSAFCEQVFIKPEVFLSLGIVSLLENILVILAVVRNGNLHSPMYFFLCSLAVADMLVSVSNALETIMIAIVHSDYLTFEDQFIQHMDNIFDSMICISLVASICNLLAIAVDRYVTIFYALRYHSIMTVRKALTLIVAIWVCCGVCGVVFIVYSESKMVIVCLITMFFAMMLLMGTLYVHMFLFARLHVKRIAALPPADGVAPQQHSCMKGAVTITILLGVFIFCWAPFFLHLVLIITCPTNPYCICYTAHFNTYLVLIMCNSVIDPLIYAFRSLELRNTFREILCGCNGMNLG

[3] = target: Melanocortin receptor 5 (Homo sapiens, UniProt P33032); type: cell membranes, HEK293, Membrane; conditions: hek293; also: in other assays of this panel Not Active means under 50% inhibition at 10 µM
Melanocortin receptor 5, sequence (P33032 whole entry): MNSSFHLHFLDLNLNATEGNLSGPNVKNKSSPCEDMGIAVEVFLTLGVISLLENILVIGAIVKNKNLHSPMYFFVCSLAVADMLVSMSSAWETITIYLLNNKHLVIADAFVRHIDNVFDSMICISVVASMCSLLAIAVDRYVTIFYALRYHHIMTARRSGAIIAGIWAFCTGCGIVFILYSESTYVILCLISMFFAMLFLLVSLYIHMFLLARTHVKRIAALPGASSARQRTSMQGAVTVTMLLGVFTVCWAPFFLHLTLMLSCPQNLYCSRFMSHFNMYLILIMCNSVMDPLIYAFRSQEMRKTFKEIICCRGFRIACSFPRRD

[4] = DRUGMATRIX: Platelet-Derived Growth Factor (PDGF) radioligand binding (ligand: [125I] PDGF); type: cell-based; conditions: nih3t3; Not Active = under 50% inhibition at 10 µM
[5] = DRUGMATRIX: Potassium Channel [KATP] radioligand binding (ligand: [3H] Glyburide); type: cell membranes, Membrane; conditions: hit-t15; Not Active = under 50% inhibition at 10 µM
[6] = target: T1, Progesterone receptor (Bos taurus, UniProt Q690N0); assay: DRUGMATRIX: Progesterone radioligand binding (ligand: [3H] R-5020); type: tissue-based, Uterus; conditions: Not Active = under 50% inhibition at 10 µM
T1 sequence (Q690N0 whole entry): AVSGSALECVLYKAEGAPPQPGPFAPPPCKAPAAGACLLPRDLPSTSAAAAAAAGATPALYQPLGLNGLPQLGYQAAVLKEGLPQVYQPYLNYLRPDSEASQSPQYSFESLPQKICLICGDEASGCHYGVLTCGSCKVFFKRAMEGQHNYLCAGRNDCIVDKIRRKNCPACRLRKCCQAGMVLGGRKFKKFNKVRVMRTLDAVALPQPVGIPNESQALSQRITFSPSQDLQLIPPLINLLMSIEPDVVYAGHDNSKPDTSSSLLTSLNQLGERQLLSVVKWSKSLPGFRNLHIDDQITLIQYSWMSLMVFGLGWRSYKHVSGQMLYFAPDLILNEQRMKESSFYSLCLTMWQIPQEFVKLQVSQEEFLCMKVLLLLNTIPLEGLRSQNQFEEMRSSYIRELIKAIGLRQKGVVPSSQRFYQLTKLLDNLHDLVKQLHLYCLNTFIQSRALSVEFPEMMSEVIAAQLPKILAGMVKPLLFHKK

[7] = target: Cytochrome P450 3A4 (Homo sapiens, UniProt P08684); conditions: bti-tn-5b1-4; also: in other assays of this panel Not Active means under 50% inhibition at 10 µM
Cytochrome P450 3A4, sequence (P08684 whole entry): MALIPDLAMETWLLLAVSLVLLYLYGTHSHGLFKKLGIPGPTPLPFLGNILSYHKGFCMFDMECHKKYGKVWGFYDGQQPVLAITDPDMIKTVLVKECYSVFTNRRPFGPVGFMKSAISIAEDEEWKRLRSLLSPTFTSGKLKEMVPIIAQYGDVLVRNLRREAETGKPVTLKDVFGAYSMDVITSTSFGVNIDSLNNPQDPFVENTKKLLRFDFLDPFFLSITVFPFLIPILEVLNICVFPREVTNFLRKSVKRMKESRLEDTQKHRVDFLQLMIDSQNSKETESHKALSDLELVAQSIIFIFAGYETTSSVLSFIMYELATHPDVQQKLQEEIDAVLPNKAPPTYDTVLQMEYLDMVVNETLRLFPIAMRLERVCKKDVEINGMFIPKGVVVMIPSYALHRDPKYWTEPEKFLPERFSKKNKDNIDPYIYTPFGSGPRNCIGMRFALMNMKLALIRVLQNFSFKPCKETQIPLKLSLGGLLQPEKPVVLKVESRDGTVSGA

CC[C@@H](C(=O)[C@@H](C)[C@@H](O)[C@H](C)[C@@H]1O[C@@H]([C@@H](CC)C(=O)O)CC[C@@H]1C)[C@H]1O[C@]2(C=C[C@@H](O)[C@]3(CC[C@@](C)([C@H]4CC[C@](O)(CC)[C@H](C)O4)O3)O2)[C@H](C)C[C@@H]1C [SALINOMYCIN]
Not Active: IC50 [1] | IC50 [2] | IC50 [3] | IC50 [4] | Ki [4] | IC50 [5] | Ki [5] | IC50 [6] | IC50 [7] | Ki [7]

O=C(Oc1ccccc1C(=O)O)c1ccccc1O [SALSALATE]
Not Active: IC50 [1] | IC50 [2] | IC50 [3] | IC50 [4] | Ki [4] | IC50 [5] | Ki [5] | IC50 [6] | IC50 [7] | Ki [7]

O=C(O)c1cn(-c2ccc(F)cc2)c2cc(N3CCNCC3)c(F)cc2c1=O [SARAFLOXACIN]
Not Active: IC50 [1] | IC50 [2] | IC50 [3] | IC50 [4] | Ki [4] | IC50 [5] | Ki [5] | IC50 [6] | IC50 [7] | Ki [7]

CC(C)NCC(O)c1ccc(NS(C)(=O)=O)cc1 (stereo not drawn) [SOTALOL]
Not Active: IC50 [1] | IC50 [2] | IC50 [3] | IC50 [4] | Ki [4] | IC50 [5] | Ki [5] | IC50 [6] | IC50 [7] | Ki [7]

O=C1C(CC[S+]([O-])c2ccccc2)C(=O)N(c2ccccc2)N1c1ccccc1 (stereo not drawn) [SULFINPYRAZONE]
Not Active: IC50 [1] | IC50 [2] | IC50 [3] | IC50 [4] | Ki [4] | IC50 [5] | Ki [5] | IC50 [6] | IC50 [7] | Ki [7]

NC(=O)N1C(=O)/C(=C(\O)c2cccs2)c2cc(Cl)ccc21 [TENIDAP]
Not Active: IC50 [1] | IC50 [2] | IC50 [3] | IC50 [4] | Ki [4] | IC50 [5] | Ki [5] | IC50 [6] | IC50 [7] | Ki [7]

Cn1c(=O)c2nc[nH]c2n(C)c1=O.O [THEOPHYLLINE]
Not Active: IC50 [1] | IC50 [2] | IC50 [3] | IC50 [4] | Ki [4] | IC50 [5] | Ki [5] | IC50 [6] | IC50 [7] | Ki [7]

CS(=O)(=O)c1ccc([C@@H](O)[C@@H](CO)NC(=O)C(Cl)Cl)cc1 [THIAMPHENICOL]
Not Active: IC50 [1] | IC50 [2] | IC50 [3] | IC50 [4] | Ki [4] | IC50 [5] | Ki [5] | IC50 [6] | IC50 [7] | Ki [7]

CCN(CC)CCNC(=O)c1cc(S(C)(=O)=O)ccc1OC [TIAPRIDE]
Not Active: IC50 [1] | IC50 [2] | IC50 [3] | IC50 [4] | Ki [4] | IC50 [5] | Ki [5] | IC50 [6] | IC50 [7] | Ki [7]

Clc1ccccc1CN1CCc2sccc2C1 [TICLOPIDINE]
Not Active: IC50 [1] | IC50 [2] | IC50 [3] | IC50 [4] | Ki [4] | IC50 [5] | Ki [5] | IC50 [6] | IC50 [7] | Ki [7]

NC1CCN(c2nc3c(cc2F)c(=O)c(C(=O)O)cn3-c2ccc(F)cc2F)C1 (stereo not drawn) [TOSUFLOXACIN]
Not Active: IC50 [1] | IC50 [2] | IC50 [3] | IC50 [4] | Ki [4] | IC50 [5] | Ki [5] | IC50 [6] | IC50 [7] | Ki [7]

O=C(Nc1ccc(Br)cc1)c1cc(Br)cc(Br)c1O [TRIBROMSALAN]
Not Active: IC50 [1] | IC50 [2] | IC50 [3] | IC50 [4] | Ki [4] | IC50 [5] | Ki [5] | IC50 [6] | IC50 [7] | Ki [7]

CC(c1cc2ccccc2s1)N(O)C(N)=O (stereo not drawn) [ZILEUTON]
Not Active: IC50 [1] | IC50 [2] | IC50 [3] | IC50 [4] | Ki [4] | IC50 [5] | Ki [5] | IC50 [6] | IC50 [7] | Ki [7]

MANGANESE CHLORIDE ANHYDROUS
Not Active: IC50 [1] | Ki [1] | IC50 [2] | Ki [2] | IC50 [3] | Ki [3] | IC50 [4] | Ki [4] | IC50 [5] | Ki [5] | IC50 [6] | Ki [6] | IC50 [7] | Ki [7]

SODIUM ORTHOVANAD
Not Active: IC50 [1] | Ki [1] | IC50 [2] | Ki [2] | IC50 [3] | Ki [3] | IC50 [4] | Ki [4] | IC50 [5] | Ki [5] | IC50 [6] | Ki [6] | IC50 [7] | Ki [7]
